Measurements: PubChem BioAssay AID2060513 (Molecular Pharmacology Branch, DTP, NCI, 2025)

System: 299254-011-R-J1-PDC complex spheroids viability
Assay: Anticancer human tumor 299254-011-R-J1-PDC patient-derived melanoma cell line growth inhibition [GQUAD]
Details: for IC50: curve of first compound; for viability, T/C: stronger effect = lower value; active means viability on the fitted dose curve at most 10% of control; inactive means the rest
Method in brief: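 Tumor cells were grown as complex spheroids with HUVEC endothelial cells and mesenchymal stem cells as stroma. G-quadruplex stabilizers were combined with targeted agents over half-log dilutions from near the clinical Cmax, or from 10 microM.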

[1] = second compound 0.0316 µM, first compound 0.0316 µM
[2] = second compound 0.0316 µM, first compound 0.1 µM
[3] = second compound 0.0316 µM, first compound 0.316 µM
[4] = second compound 0.0316 µM, first compound 1 µM
[5] = second compound 0.0316 µM, first compound 3.16 µM
[6] = second compound 0.0316 µM, first compound 10 µM
[7] = second compound 0.1 µM, first compound 0.0316 µM
[8] = second compound 0.1 µM, first compound 0.1 µM
[9] = second compound 0.1 µM, first compound 0.316 µM
[10] = second compound 0.1 µM, first compound 1 µM
[11] = second compound 0.1 µM, first compound 3.16 µM
[12] = second compound 0.1 µM, first compound 10 µM
[13] = second compound 0.316 µM, first compound 0.0316 µM
[14] = second compound 0.316 µM, first compound 0.1 µM
[15] = second compound 0.316 µM, first compound 0.316 µM
[16] = second compound 0.316 µM, first compound 1 µM
[17] = second compound 0.316 µM, first compound 3.16 µM
[18] = second compound 0.316 µM, first compound 10 µM
[19] = second compound 1 µM, first compound 0.0316 µM
[20] = second compound 1 µM, first compound 0.1 µM
[21] = second compound 1 µM, first compound 0.316 µM
[22] = second compound 1 µM, first compound 1 µM
[23] = second compound 1 µM, first compound 3.16 µM
[24] = second compound 1 µM, first compound 10 µM
[25] = second compound 3.16 µM, first compound 0.0316 µM
[26] = second compound 3.16 µM, first compound 0.1 µM
[27] = second compound 3.16 µM, first compound 0.316 µM
[28] = second compound 3.16 µM, first compound 1 µM
[29] = second compound 3.16 µM, first compound 3.16 µM
[30] = second compound 3.16 µM, first compound 10 µM
[31] = second compound 10 µM, first compound 0.0316 µM
[32] = second compound 10 µM, first compound 0.1 µM
[33] = second compound 10 µM, first compound 0.316 µM
[34] = second compound 10 µM, first compound 1 µM
[35] = second compound 10 µM, first compound 3.16 µM
[36] = second compound 10 µM, first compound 10 µM
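Further: spheroids exposed to the agents for seven days before readout.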
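Wherever viability, T/C is given: percent viability relative to DMSO vehicle control wells = 100%.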

CC1COCCN1c1cc(C2(O)CC3CCC(C2)O3)c2cnn(-c3ccn[nH]3)c2n1 (centres undefined) + Cc1[nH]c2ccc(F)cc2c1-c1nc2c3cccnc3c3ncccc3c2[nH]1
0.125 µM: IC50 (second compound 1 µM)
0.127 µM: IC50 (second compound 0.0316 µM)
active: viability, T/C [6] 8.75% | viability, T/C [24] 7.91% | viability, T/C [35] 9.33% | viability, T/C [36] 4.43%
inactive: viability, T/C [1] 83.2% | viability, T/C [2] 54.7% | viability, T/C [3] 31.3% | viability, T/C [4] 14.4% | viability, T/C [5] 12.2% | viability, T/C [7] 72.7% | viability, T/C [8] 60.4% | viability, T/C [9] 20.7% | viability, T/C [10] 14.7% | viability, T/C [11] 14.4% | viability, T/C [12] 7.02% | viability, T/C [13] 77.3% | viability, T/C [14] 76.6% | viability, T/C [15] 23.8% | viability, T/C [16] 19.6% | viability, T/C [17] 12.6% | viability, T/C [18] 7.48% | viability, T/C [19] 73.7% | viability, T/C [20] 55.8% | viability, T/C [21] 30.4% | viability, T/C [22] 22.1% | viability, T/C [23] 13.7% | viability, T/C [25] 84.5% | viability, T/C [26] 52.7% | viability, T/C [27] 22.5% | viability, T/C [28] 16% | viability, T/C [29] 14% | viability, T/C [30] 6.07% | viability, T/C [31] 73% | viability, T/C [32] 46.9% | viability, T/C [33] 21.8% | viability, T/C [34] 15.1%
0.109 µM: IC50 (second compound 3.16 µM)
0.135 µM: IC50 (second compound 0.1 µM)
0.0838 µM: IC50 (second compound 10 µM)
0.178 µM: IC50 (second compound 0.316 µM)

O=C(NO)c1cnc(N2CCN(S(=O)(=O)c3ccc4ccccc4c3)CC2)nc1 + Cc1[nH]c2ccc(F)cc2c1-c1nc2c3cccnc3c3ncccc3c2[nH]1
1.48 µM: IC50 (second compound 10 µM)
1.53 µM: IC50 (second compound 1 µM)
inactive: viability, T/C [1] 119% | viability, T/C [2] 98% | viability, T/C [3] 76.8% | viability, T/C [4] 9.39% | viability, T/C [7] 99.2% | viability, T/C [8] 111% | viability, T/C [9] 90.2% | viability, T/C [10] 18.1% | viability, T/C [13] 91.4% | viability, T/C [14] 102% | viability, T/C [15] 88.8% | viability, T/C [16] 50.3% | viability, T/C [19] 112% | viability, T/C [20] 91.6% | viability, T/C [21] 80.9% | viability, T/C [22] 79.2% | viability, T/C [25] 99.2% | viability, T/C [26] 120% | viability, T/C [27] 108% | viability, T/C [28] 64.5% | viability, T/C [31] 87.8% | viability, T/C [32] 103% | viability, T/C [33] 99.6% | viability, T/C [34] 75.4%
1.3 µM: IC50 (second compound 3.16 µM)
0.602 µM: IC50 (second compound 0.1 µM)
0.496 µM: IC50 (second compound 0.0316 µM)
active: viability, T/C [5] 0.24% | viability, T/C [6] 0.27% | viability, T/C [11] 0.2% | viability, T/C [12] 0.25% | viability, T/C [17] 0.17% | viability, T/C [18] 0.21% | viability, T/C [23] 0.19% | viability, T/C [24] 0.22% | viability, T/C [29] 0.22% | viability, T/C [30] 0.21% | viability, T/C [35] 0.25% | viability, T/C [36] 0.25%
0.988 µM: IC50 (second compound 0.316 µM)
